Measurements reported in patent publication EP4806891A1 (Kangbaida (Sichuan) Biotechnology Co., Ltd., priority 2023, dated 2025).

Molecular target: T1, HEK-Blue-hTLR9 cells (Homo sapiens, UniProt Q9NR96)
T1 construct: expressed in transfected cells; host or cells: HEK-Blue-hTLR9 cells (HEK293-derived reporter line)
T1 sequence (Q9NR96 26-1032): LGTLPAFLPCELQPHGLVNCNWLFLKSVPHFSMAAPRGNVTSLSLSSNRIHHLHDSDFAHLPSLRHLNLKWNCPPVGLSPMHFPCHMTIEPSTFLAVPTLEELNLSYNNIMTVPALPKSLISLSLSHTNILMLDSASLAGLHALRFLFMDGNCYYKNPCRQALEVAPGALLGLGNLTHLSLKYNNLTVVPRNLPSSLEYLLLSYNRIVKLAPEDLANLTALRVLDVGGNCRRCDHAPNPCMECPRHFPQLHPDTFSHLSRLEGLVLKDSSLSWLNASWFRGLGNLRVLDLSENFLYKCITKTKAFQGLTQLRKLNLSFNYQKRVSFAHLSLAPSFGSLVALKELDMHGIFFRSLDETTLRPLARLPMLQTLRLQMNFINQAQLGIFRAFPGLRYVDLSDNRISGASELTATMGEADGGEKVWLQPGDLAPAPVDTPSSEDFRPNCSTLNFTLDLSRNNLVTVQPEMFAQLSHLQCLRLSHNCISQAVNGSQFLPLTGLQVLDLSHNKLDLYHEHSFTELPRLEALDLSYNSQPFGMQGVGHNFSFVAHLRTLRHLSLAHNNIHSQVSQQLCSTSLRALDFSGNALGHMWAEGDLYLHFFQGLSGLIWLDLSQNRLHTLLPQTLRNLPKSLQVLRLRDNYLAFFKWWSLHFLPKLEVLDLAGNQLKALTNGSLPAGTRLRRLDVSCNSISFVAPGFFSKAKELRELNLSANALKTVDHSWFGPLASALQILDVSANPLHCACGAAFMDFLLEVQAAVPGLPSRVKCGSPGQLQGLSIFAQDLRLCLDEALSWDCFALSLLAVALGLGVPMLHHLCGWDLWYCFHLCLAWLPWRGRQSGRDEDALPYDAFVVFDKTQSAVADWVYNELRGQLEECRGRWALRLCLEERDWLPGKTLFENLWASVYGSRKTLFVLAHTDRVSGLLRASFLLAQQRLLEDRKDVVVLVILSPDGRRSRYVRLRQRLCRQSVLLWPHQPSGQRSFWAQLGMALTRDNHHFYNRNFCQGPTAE
Assay: HEK-Blue-hTLR9 cell inhibition assay
Assay type: cell-based
Conditions: ODN2006 1 µM, 16 h, OD 620 nm, read-out: TLR9 IC50
Procedure: HEK-Blue-hTLR7/8/9 cell inhibition assay
1. HEK-Blue-hTLR7/8 cells (1 × 10^4 cells/well) and HEK-Blue-hTLR9 cells (1.5 × 10^4 cells/well) were seeded in a 384-well cell culture plate, with a volume of 30 µL per well. The plate was incubated at 37°C in a 5% CO2 incubator for 4 h. 2. The compound was prepared with DMSO and diluted in DMEM medium to 10 concentrations (1:3 dilution), with final concentrations of 10000, 3333.3, 1111.1, 370.4, 123.5, 41.2, 13.7, 4.6, 1.5, and 0.5 nM; R848 was prepared with DMSO and diluted in DMEM medium, with final concentrations of 0.8 µM (HEK-Blue-hTLR7) and 3 µM (HEK-Blue-hTLR8); ODN2006 was prepared with endotoxin-free water and diluted in DMEM medium, with a final concentration of 1 µM. 3. Cells treated with DMSO were used as the blank control group, while cells treated solely with Resiquimod (R848) were used as the positive control group for HEK-Blue-hTLR7/8, and cells treated solely with ODN2006 were used as the positive control group for HEK-Blue-hTLR9. Cells treated with the test compound together with R848 or ODN2006 were used as the test group. Two parallel wells were set for each group and were placed at 37°C in a 5% CO2 incubator for incubation. 4. After being incubated for 4 h, the 384-well plate of HEK-Blue-hTLR7/8 was taken out from the incubator, and R848 alone or both R848 and the diluted compound were separately added into each well. The plate was placed at 37°C in a 5% CO2 incubator for incubation for 16 h; the 384-well plate of HEK-Blue-hTLR9 was taken out from the incubator, and ODN2006 alone or both ODN2006 and the diluted compound were added separately to each well. The plate was incubated at 37°C in a 5% CO2 incubator for 16 h. 5. After being incubated for 16 h, the 384-well plate was removed from the incubator and centrifuged at 1000 rpm for 1 minute. The optical density value of each well at 620 nm was measured using a multifunctional microplate reader. 6. The cell inhibition rate was calculated as (1-(OD620 test group-OD620 blank group)/(OD620 positive group-OD620 blank group))×100%, and the half maximal inhibitory concentration (IC50) was calculated through curve fitting. Table 1: Activity of the compounds of the present disclosure in HEK-Blue-hTLR7/8/9 cellular assays

Row | Compound | IC50 [µM]
1 | N#Cc1ccc(N2C[C@]3(c4nnc(CCN5CCOCC5)o4)C[C@]3(C(F)(F)F)C2)c2cccnc12 [Compound 43, 5-((1S,5R)-1-(5-(morpholinoethyl)-1,3,4-oxadiazol-2-yl)-5-(trifluoromethyl)-3-azabicyclo[3.1.0]hexan-3-yl)quinoline-8-carbonitrile] | > 10
2 | Cn1c(CN2CCCC2)nnc1[C@]12CN(c3ccc(C#N)c4ncccc34)C[C@@]1(C(F)(F)F)C2 [Compound 44, 5-((1S,5R)-1-(4-methyl-5-(pyrrolidin-1-ylmethyl)-4H-1,2,4-triazol-3-yl)-5-(trifluoromethyl)-3-azabicyclo[3.1.0]hexan-3-yl)quinoline-8-carbonitrile] | > 10
3 | N#Cc1ccc(N2C[C@]3(c4nnc(C5CNCC(F)C5)o4)C[C@]3(C(F)(F)F)C2)c2cccnc12 (stereo partly drawn) [Compound 45, 5-((1R,5S)-1-((difluoro-3-methyl)-12-fluoraneyl)-5-(5-(5-fluoropiperidin-3-yl)-1,3,4-oxadiazol-2-yl)-3-azabicyclo[3.1.0]hexan-3-yl)quinoline-8-carbonitrile] | > 10
4 | N#Cc1ccc(N2C[C@]3(c4nnc(C5(F)CCNC5)o4)C[C@]3(C(F)(F)F)C2)c2cccnc12 (stereo partly drawn) [Compound 46, 5-((1S,5R)-1-(5-(3-fluoropyrrolidin-3-yl)-1,3,4-oxadiazol-2-yl)-5-(trifluoromethyl)-3-azabicyclo[3.1.0]hexan-3-yl)quinoline-8-carbonitrile] | > 10
5 | CN1CCC(F)(c2nnc([C@]34CN(c5ccc(C#N)c6ncccc56)C[C@@]3(C(F)(F)F)C4)o2)C1 (stereo partly drawn) [Compound 47, 5-((1S,5R)-1-(5-(3-fluoro-1-methylpyrrolidin-3-yl)-1,3,4-oxadiazol-2-yl)-5-(trifluoromethyl)-3-azabicyclo[3.1.0]hexan-3-yl)quinoline-8-carbonitrile] | > 10
6 | CN1CC(F)(c2nnc([C@]34CN(c5ccc(C#N)c6ncccc56)C[C@@]3(C(F)(F)F)C4)o2)C1 [Compound 49, 5-((1S,5R)-1-(5-(3-fluoro-1-methylazetidin-3-yl)-1,3,4-oxadiazol-2-yl)-5-(trifluoromethyl)-3-azabicyclo[3.1.0]hexan-3-yl)quinoline-8-carbonitrile] | > 10
7 | CN1CCC(c2nnc([C@]34CN(c5ccc(C#N)c6ncccc56)C[C@@]3(C(F)(F)F)C4)o2)C(F)C1 (stereo partly drawn) [Compound 50, 5-((1S,5R)-1-(5-(3-fluoro-1-methylpiperidin-4-yl)-1,3,4-oxadiazol-2-yl)-5-(trifluoromethyl)-3-azabicyclo[3.1.0]hexan-3-yl)quinoline-8-carbonitrile] | > 1
8 | CN(C)CCc1nnc([C@]23CN(c4ccc(C#N)c5ncccc45)C[C@@]2(C(F)(F)F)C3)o1 [Compound 51, 5-((1S,5R)-1-(5-(2-(dimethylamino)ethyl)-1,3,4-oxadiazol-2-yl)-5-(trifluoromethyl)-3-azabicyclo[3.1.0]hexan-3-yl)quinoline-8-carbonitrile] | > 10
9 | N#Cc1ccc(N2C[C@]3(c4nnc(C56CCC(N)(CC5)CC6)o4)C[C@]3(C(F)(F)F)C2)c2cccnc12 [Compound 52, 5-((1S,5R)-1-(5-(4-aminobicyclo[2.2.2]octan-1-yl)-1,3,4-oxadiazol-2-yl)-5-(trifluoromethyl)-3-azabicyclo[3.1.0]hexan-3-yl)quinoline-8-carbonitrile] | < 1
10 | CN(C)C12CCC(c3nnc([C@]45CN(c6ccc(C#N)c7ncccc67)C[C@@]4(C(F)(F)F)C5)o3)(CC1)CC2 [Compound 53, 5-((1S,5R)-1-(5-(4-(dimethylamino)bicyclo[2.2.2]octan-1-yl)-1,3,4-oxadiazol-2-yl)-5-(trifluoromethyl)-3-azabicyclo[3.1.0]hexan-3-yl)quinoline-8-carbonitrile] | > 1
11 | N#Cc1ccc(N2C[C@]3(c4nnc(C56CCC(NC(=O)[C@@H]7COCCN7)(CC5)CC6)o4)C[C@]3(C(F)(F)F)C2)c2cccnc12 [Compound 54, (S)-N-(4-(5-((1S,5R)-3-(8-cyanoquinolin-5-yl)-5-(trifluoromethyl)-3-azabicyclo[3.1.0]hexan-1-yl)-1,3,4-oxadiazol-2-yl)bicyclo[2.2.2]octan-1-yl)morpholine-3-carboxamide] | > 1
12 | N#Cc1ccc(N2C[C@]3(c4nnc([C@H]5CN(CC(N)=O)CCO5)o4)C[C@]3(C(F)(F)F)C2)c2cccnc12 [Compound 56, 2-((R)-2-(5-((1S,5R)-3-(8-cyanoquinolin-5-yl)-5-(trifluoromethyl)-3-azabicyclo[3.1.0]hexan-1-yl)-1,3,4-oxadiazol-2-yl)morpholino)acetamide] | > 10
13 | CN1CCC(c2nnc([C@]34CN(c5ccc(C#N)n6ncc(F)c56)C[C@@]3(C(F)(F)F)C4)o2)CC1 [Compound 57, 3-fluoro-4-((1S,5R)-1-(5-(1-methylpiperidin-4-yl)-1,3,4-oxadiazol-2-yl)-5-(trifluoromethyl)-3-azabicyclo[3.1.0]hexan-3-yl)pyrazolo[1,5-a]pyridine-7-carbonitrile] | > 1
14 | CN1CCC(c2nnc([C@]34CN(c5ccc(C#N)n6nccc56)C[C@@]3(C(F)(F)F)C4)o2)CC1 [Compound 59, 4-((1S,5R)-1-(5-(1-methylpiperidin-4-yl)-1,3,4-oxadiazol-2-yl)-5-(trifluoromethyl)-3-azabicyclo[3.1.0]hexan-3-yl)pyrazolo[1,5-a]pyridine-7-carbonitrile] | > 1
15 | N#Cc1ccc(N2C[C@]3(c4nnc(C5(F)CCNCC5)o4)C[C@]3(C(F)(F)F)C2)c2cccnc12 [Compound 60, 5-((1S,5R)-1-(5-(4-fluoropiperidin-4-yl)-1,3,4-oxadiazol-2-yl)-5-(trifluoromethyl)-3-azabicyclo[3.1.0]hexan-3-yl)quinoline-8-carbonitrile] | < 1
16 | COc1ccc(N2C[C@]3(c4nnc(C5CCN(C)CC5)o4)C[C@]3(C(F)(F)F)C2)c2cccnc12 [Compound 66, 2-((1S,5R)-3-(8-methoxyquinolin-5-yl)-5-(trifluoromethyl)-3-azabicyclo[3.1.0]hexan-1-yl)-5-(1-methylpiperidin-4-yl)-1,3,4-oxadiazole] | > 1
17 | CN1CCC(n2cc([C@]34CN(c5ccc(C#N)c6ncccc56)C[C@@]3(C(F)(F)F)C4)nn2)CC1 [Compound 71, 5-((1S,5R)-1-(1-(1-methylpiperidin-4-yl)-1H-1,2,3-triazol-4-yl)-5-(trifluoromethyl)-3-azabicyclo[3.1.0]hexan-3-yl)quinoline-8-carbonitrile] | > 1
18 | FC(F)(F)c1ccc(N2C[C@]3(c4nnc(C5CCNCC5)o4)C[C@]3(C(F)(F)F)C2)c2cccnc12 [Compound 75, 2-(piperidin-4-yl)-5-((1S,5R)-5-(trifluoromethyl)-3-(8-(trifluoromethyl)quinolin-5-yl)-3-azabicyclo[3.1.0]hexan-1-yl)-1,3,4-oxadiazole] | > 1
